Here are results for five molecules from ChEMBL document CHEMBL1201862, “PubChem BioAssay data set” (2004).

Experiment in all cases: NCI anticancer screen, dose series, 48 h
Test [1] relates to A498.
Test [2] relates to CAKI-1.
The test system of test [3] is COLO 205.
Test [4] deals with HCT-15.
Test [5] relates to NCI-H226.
For test [6], the system named is NCI-H23.
The subject of test [7] is NCI-H522.
For test [8], the system named is OVCAR-5.
For test [9], the system named is OVCAR-8.
The test system of test [10] is SF-539.
In test [11] the test system is SK-MEL-28.
Test [12] relates to SK-MEL-2.
Test [13] concerns SK-OV-3.
Test [14] relates to SNB-75.
Test [15] has as its system SW-620.
Test [16] has as its system UACC-62.

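Cells were grown in 96-well plates and exposed to each compound for 48 hours at five concentrations; endpoints were interpolated linearly between bracketing concentrations, or set to the highest concentration if not reached. At the GI50, growth is halved.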 The source made the active and inactive calls. Rule as the data show it: active = GI50 up to about 1.1 µM and inactive = higher. Where only a bound is given, the exact number is not on record here.

Regarding `NC(=O)CN(CC(N)=O)C(N)=O`, the GI50 was > 100 µM (inactive) in [1]; > 100 µM (inactive) in test [2]; > 100 µM (inactive) in test [3]; over 100 µM in test [4]; > 100 µM (inactive) in test [5]; > 100 µM (inactive) in test [6]. For the same molecule, the GI50 in test [7], in test [8], in [9], in test [10], in test [11] and in test [12] was > 100 µM (inactive) throughout. Further, the GI50 in test [13] is > 100 µM (inactive); in test [14], 23 µM (inactive); in [15], > 100 µM (inactive); in test [16], > 100 µM (inactive).
With `CN(Cc1ccccc1)c1nc(=[N+](C)C)ss1`, the GI50 in test [1] is 99.5 µM (inactive); in test [2] it was > 100 µM (inactive); in test [4] it was over 100 µM; in [5], 8.95 µM (inactive); in test [6], 31.8 µM (inactive); in test [7], 41.1 µM (inactive). The GI50 in test [8] was > 100 µM (inactive); in test [9], > 100 µM (inactive); in test [10], 76.4 µM (inactive); in test [11], > 100 µM (inactive); in test [12], 25.9 µM (inactive); in test [13] it was 96.8 µM (inactive). For the same molecule, the values for the GI50 in [14], in test [15] and in [16] were > 100 µM (inactive), > 100 µM (inactive) and 24.6 µM (inactive), respectively.
`C1CSCCSCCCS[C@@H]2CCCCC2SC1` (stereo partly drawn): the GI50 in [1] is > 100 µM (inactive); in test [2] it was > 100 µM (inactive); in test [3], 52.5 µM (inactive); in test [4], 15.4 µM; in [5], > 100 µM (inactive); in test [6] it was > 100 µM (inactive). For the same molecule, the GI50 in test [7] was 25.9 µM (inactive); in test [8], > 100 µM (inactive); in test [9] it was > 100 µM (inactive); in test [10], > 100 µM (inactive); in [11], > 100 µM (inactive); in [12], > 100 µM (inactive). For the same molecule, the GI50 in test [13] is > 100 µM (inactive); in test [14], > 100 µM (inactive); in test [15], 20.1 µM (inactive); in test [16] it was > 100 µM (inactive).
With `O=C1O[C@@H](c2ccccc2)C[C@@H]1CN1CCOCC1`, the GI50 in test [1] was > 100 µM (inactive); in test [2], 65.5 µM (inactive); in [3] it was > 100 µM (inactive); in [4] it was over 100 µM; in test [5] it was > 100 µM (inactive); in test [6], 26.3 µM (inactive). The GI50 in test [7], in test [8], in [9], in [10], in [11] and in test [12] was > 100 µM (inactive) in each case. Moreover, the GI50 in test [13], in [14], in [15] and in [16] was > 100 µM (inactive) in each case.
As for `O=[N+]([O-])CCc1cccc([N+](=O)[O-])c1`, the GI50 was > 100 µM (inactive) in test [1]; > 100 µM (inactive) in test [2]; > 100 µM (inactive) in test [3]; over 100 µM in [4]; > 100 µM (inactive) in test [5]; > 100 µM (inactive) in [6]. In addition, the GI50 in test [7], in [8], in [9], in [10], in test [11] and in [12] was > 100 µM (inactive) each time. Moreover, the GI50 in test [14] is > 100 µM (inactive); in test [15] it was 9.44 µM (inactive); in [16], > 100 µM (inactive).
